# Read-outs that look alike come from different tables or passages of the source.
# Experiments:
# [1] = tested on: HeLa cells; test: Compound screen by flow cytometry: HeLa cell count as surrogate readout of cell viability (z-scoreHeLa); type: cell-based, human
# Outline: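 The viability surrogate was the count of fixed HeLa cells by flow cytometry, converted to z-scores against DMSO controls with values deviating two-fold excluded. Before counting, cells had been infected with MRSA for 1 h and cleared of extracellular bacteria with gentamicin. They were then exposed overnight to kinase inhibitors in triplicate.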
# [2] = tested on: intracellular MRSA; type: cell-based, Staphylococcus aureus; details: for %GFP+ rep 1 / z-scoreMRSA+ rep 1: replicate 1; for %GFP+ rep 2 / z-scoreMRSA+ rep 2: replicate 2; for %GFP+ rep 3 / z-scoreMRSA+ rep 3: replicate 3; for z-scoreMRSA+ mean / z-scoreMRSA+ rep 1 / z-scoreMRSA+ rep 2 / z-scoreMRSA+ rep 3 / effect / hit: PKIS compound screen; for z-scoreMRSA+ mean: mean of 3 replicates; for hit: Yes/No call (effect without cell death)
# Outline: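 HeLa cells were infected with GFP-expressing MRSA (mean MOI 6.8) for 1 h, treated with 30 µg/ml gentamicin for 15 min, then incubated overnight at 37°C with kinase inhibitors and 5 µg/ml gentamicin. Flow cytometry gave % GFP-positive cells, with cell count as viability. Hits were z-score ≤ -2 (infection) and ≥ -3 (count) versus DMSO.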
# [3] = PKIS compound screen raw data, HeLa cell count, replicate 1
# [4] = PKIS compound screen raw data, HeLa cell count, replicate 2
# [5] = PKIS compound screen raw data, HeLa cell count, replicate 3
# [6] = PKIS compound screen, HeLa cell count, mean of 3 replicates
# [7] = PKIS compound screen, HeLa cell count, replicate 1
# [8] = PKIS compound screen, HeLa cell count, replicate 2
# [9] = PKIS compound screen, HeLa cell count, replicate 3
# [10] = PKIS compound screen, Yes/No call
# [11] = PKIS compound screen, Yes/No call on z-scoreHeLa
# [12] = PKIS compound screen, mean of 3 replicates
# [13] = PKIS compound screen, replicate 1
# [14] = PKIS compound screen, replicate 2
# [15] = PKIS compound screen, replicate 3
# [16] = PKIS compounds raw data, replicate 1, HeLa cell count
# [17] = PKIS compounds raw data, replicate 2, HeLa cell count
# [18] = PKIS compounds raw data, replicate 3, HeLa cell count
# [19] = PKIS compound screen raw data, MRSA-infected HeLa cells
# [20] = PKIS compounds raw data, MRSA-infected HeLa cells
Compound,"cell count rep 1 [1, 3]","cell count rep 2 [1, 4]","cell count rep 3 [1, 5]","cell death [1, 10]","z-scoreHeLa mean [1, 12]","z-scoreHeLa rep 1 [1, 13]","z-scoreHeLa rep 2 [1, 14]","z-scoreHeLa rep 3 [1, 15]","cell count rep 1 [1, 16]","cell count rep 2 [1, 17]","cell count rep 3 [1, 18]",effect ([2]; Yes/No call),hit [2],z-scoreMRSA+ mean [2],z-scoreMRSA+ rep 1 [2],z-scoreMRSA+ rep 2 [2],z-scoreMRSA+ rep 3 [2],"%GFP+ rep 1 [2, 20] [%]","%GFP+ rep 2 [2, 20] [%]","%GFP+ rep 3 [2, 20] [%]",other results
COc1ccc(Nc2nccc(N3CCC(NC(=O)Nc4cccc(OC)c4)C3)n2)cc1 (stereo not drawn) [GSK1379742A],25651,33132,39377,No,1.53,1.56,0.68,2.36,8641,7027,9326,No,No,0.33,-0.05,0.88,0.15,26.8,30.6,28.1,"z-scoreHeLa mean [1, 6]: 0.12; z-scoreHeLa rep 1 [1, 7]: 0.84; z-scoreHeLa rep 2 [1, 8]: -0.31; z-scoreHeLa rep 3 [1, 9]: -0.18; cell death [1, 11]: No; %GFP+ rep 1 [2, 19]: 17.9%; %GFP+ rep 2 [2, 19]: 19.2%; %GFP+ rep 3 [2, 19]: 19.1%; z-scoreMRSA+ mean ([2]; MRSA-infected HeLa cells): 0.00235; z-scoreMRSA+ rep 1 ([2]; MRSA-infected HeLa cells): 0.0133; z-scoreMRSA+ rep 2 ([2]; MRSA-infected HeLa cells): 0.20; z-scoreMRSA+ rep 3 ([2]; MRSA-infected HeLa cells): -0.21; effect ([2]; Yes/No call on z-scoreMRSA+): No"
O=C(c1ccc(-c2cc(-c3c[nH]nc3-c3ccccn3)ccn2)cc1)N1CCOCC1 [GW812171X],–,–,–,No,1.19,2.02,0.77,0.78,9409,7175,6822,No,No,-0.14,-0.40,-0.08,0.06,25.0,25.6,27.6,–
CN(C)S(=O)(=O)c1cc(-c2ccc3nccc(-c4cccc(S(N)(=O)=O)c4)c3c2)cnc1N [GSK1669921A],–,–,–,No,-1.20,-1.09,-1.39,-1.10,4231,3906,3857,No,No,-1.31,-1.39,-1.10,-1.42,19.9,20.3,19.6,–
SB-675259-M,–,–,–,–,–,–,–,–,–,–,–,No,No,-0.33,-0.0227,0.37,-1.33,13.1,14.6,11.4,cell count rep 1 [1]: 2153; cell count rep 2 [1]: 1700; cell count rep 3 [1]: 5596; cell death [1]: No; z-scoreHeLa mean [1]: -1.66; z-scoreHeLa rep 1 [1]: -2.37; z-scoreHeLa rep 2 [1]: -1.94; z-scoreHeLa rep 3 [1]: -0.65
NS(=O)(=O)c1ccc(N/C=C2\C(=O)Nc3ccc4ncsc4c32)cc1 [GW297361X],–,–,–,No,-1.04,-1.65,-0.59,-0.88,2950,3493,5130,No,No,0.46,0.87,1.17,-0.68,15.9,17.0,13.6,–
Cc1ccc(NC(=O)Nc2ccccc2)cc1-c1ccc(C(=O)Nc2ccncc2)cc1 [GSK1398471A],–,–,–,No,-2.19,-2.47,-2.21,-1.88,1939,2675,2624,No,No,2.16,1.78,2.78,1.92,36.2,40.5,37.6,–
c1ccc(Oc2ccc(Nc3ccnc4cc(-c5ccc(CNCCN6CCOCC6)o5)ccc34)cc2)nc1 [GW567145X],29321,19879,15455,No,0.19,0.019,0.89,-0.32,6078,7342,5085,No,No,-0.39,-0.38,-0.37,-0.40,25.1,24.1,25.1,"z-scoreHeLa mean [1, 6]: -0.58; z-scoreHeLa rep 1 [1, 7]: -0.15; z-scoreHeLa rep 2 [1, 8]: -0.93; z-scoreHeLa rep 3 [1, 9]: -0.68; cell death [1, 11]: No; %GFP+ rep 1 [2, 19]: 20.5%; %GFP+ rep 2 [2, 19]: 21.2%; %GFP+ rep 3 [2, 19]: 22.8%; z-scoreMRSA+ mean ([2]; MRSA-infected HeLa cells): 0.46; z-scoreMRSA+ rep 1 ([2]; MRSA-infected HeLa cells): 0.46; z-scoreMRSA+ rep 2 ([2]; MRSA-infected HeLa cells): 0.49; z-scoreMRSA+ rep 3 ([2]; MRSA-infected HeLa cells): 0.43; effect ([2]; Yes/No call on z-scoreMRSA+): No"
O=c1cc(N2CCOCC2)nc2n(Cc3cccc4ccccc34)ccn12 [GSK2333389A],20901,33281,38349,–,–,–,–,–,–,–,–,–,Yes,–,–,–,–,–,–,–,"z-scoreHeLa mean [1, 6]: -0.17; z-scoreHeLa rep 1 [1, 7]: 0.12; z-scoreHeLa rep 2 [1, 8]: -0.28; z-scoreHeLa rep 3 [1, 9]: -0.35; cell death [1, 11]: No; %GFP+ rep 1 [2, 19]: 11.3%; %GFP+ rep 2 [2, 19]: 12.1%; %GFP+ rep 3 [2, 19]: 12.6%; z-scoreMRSA+ mean ([2]; MRSA-infected HeLa cells): -2.07; z-scoreMRSA+ rep 1 ([2]; MRSA-infected HeLa cells): -2.08; z-scoreMRSA+ rep 2 ([2]; MRSA-infected HeLa cells): -1.93; z-scoreMRSA+ rep 3 ([2]; MRSA-infected HeLa cells): -2.19; effect ([2]; Yes/No call on z-scoreMRSA+): Yes"

# — article PMC10999543, “Identification of kinase modulators as host-directed therapeutics against intracellular methicillin-resistant Staphylococcus aureus” (Frontiers in Cellular and Infection Microbiology, 2024)
